In one test the test system is HCT-116. As to the kind of experiment: Cytotoxicity against human HCT116 cells after 72 hrs by MTT assay. To be noted: HCT-116, 72 h. It is filed as functional, cell-based. A general note: Tetrazolium dyes change colour on reduction, which living cells bring about.
The next test has as its system HT-29. As to the kind of experiment: Cytotoxicity against human HT-29 cells after 72 hrs by MTT assay. Type of test: functional, cell-based. To be noted: HT-29, 72 h.

Molecules are shown by their SMILES.

Regarding `CC(C)Cc1ccc(C(C)C(=O)OC(C)CC(=O)OC(C)CC(=O)OC(C)CC(=O)OC(C)CC(=O)OC(C)CC(=O)OC(C)CC(=O)O)cc1` (stereo unspecified), the results for the IC50 with HCT-116 and in the test with HT-29 were 53 µM and 77 µM, respectively.

For the compound `CC(C)Cc1ccc(C(C)C(=O)O)cc1` (stereo unspecified) [IBUPROFEN], the half-maximal inhibitory concentration (IC50) in the test with HCT-116 is 448 µM; with HT-29, 552 µM.

`CC(C)Cc1ccc(C(C)C(=O)OC(C)CC(=O)OC(C)CC(=O)OC(C)CC(=O)OC(C)CC(=O)O)cc1` (stereo unspecified): the IC50 with HCT-116 was found to be 31 µM; with HT-29 it was 37 µM.

As a reminder, the IC50 is the concentration at which inhibition is half-maximal. Lower therefore signals greater potency.
